Results from ChEMBL document CHEMBL1201862, “PubChem BioAssay data set” (2004).
Calls of active or inactive are those of the source.

How the values were obtained:
[1] = biological target: Glyceraldehyde-3-phosphate dehydrogenase (Homo sapiens, UniProt P04406)
[2] = biological target: Alkaline phosphatase, placental type (Homo sapiens, UniProt P05187); experiment: PLAP enzyme inhibitors, confirmation, biochemical, luminescence (AID 1512); type: functional
[3] = test system: BJ; experiment: cytotoxicity toward BJ-TERT fibroblasts, dose response, cell-based, RAS-independent, luminescence (AID 1933); type: functional; settings: Homo sapiens
[4] = test system: BJ; experiment: cells; type: functional, cell-based; settings: Homo sapiens
[5] = microbe, parasite or virus in culture; type: functional; settings: Mycobacterium tuberculosis
[6] = test system: BJ; experiment: cytotoxicity toward BJ-TERT-LT-ST fibroblasts, dose response, cell-based, RAS-independent, luminescence (AID 1935); type: functional; settings: Homo sapiens;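 further: BJ fibroblasts immortalized with TERT plus LT and ST oncogenes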
[7] = cytotoxicity toward DRD oncogenic fibroblasts, dose response, cell-based, non-viral oncogenic, luminescence (AID 1934); type: functional; settings: Homo sapiens
[8] = biological target: Neurotensin receptor type 1 (Homo sapiens, UniProt P30989); type: functional;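 further: Image-based confirmatory dose-response assay measuring agonist activity at NTR1; NTR1-expressing U2OS osteosarcoma cells imaged for beta-arrestin GFP spot formation; agonist potency where compounds increase beta-arrestin recruitment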
Sequence of Neurotensin receptor type 1 (P30989 whole entry): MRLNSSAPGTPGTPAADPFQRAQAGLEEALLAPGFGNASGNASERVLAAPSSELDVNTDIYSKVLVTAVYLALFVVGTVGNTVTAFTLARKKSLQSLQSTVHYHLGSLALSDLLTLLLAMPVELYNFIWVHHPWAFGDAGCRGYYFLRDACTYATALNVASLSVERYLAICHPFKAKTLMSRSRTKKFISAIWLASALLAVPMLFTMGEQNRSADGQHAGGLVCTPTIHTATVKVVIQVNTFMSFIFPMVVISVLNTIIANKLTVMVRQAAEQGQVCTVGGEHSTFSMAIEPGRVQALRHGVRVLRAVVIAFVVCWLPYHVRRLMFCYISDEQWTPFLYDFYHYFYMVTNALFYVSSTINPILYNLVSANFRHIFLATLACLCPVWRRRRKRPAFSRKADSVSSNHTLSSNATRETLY

[9] = test system: Trypanosoma cruzi; experiment: growth inhibition of intracellular Trypanosoma cruzi, dose response, cell-based, plate reader, dry powder, set 3 (AID 493197); type: functional
[10] = biological target: NACHT, LRR and PYD domains-containing protein 3 (Homo sapiens, UniProt Q96P20); experiment: NALP3 inhibitors in yeast, dose response, luminescent (AID 488799); type: functional
Sequence of NACHT, LRR and PYD domains-containing protein 3 (Q96P20 whole entry, the tested form may be a part): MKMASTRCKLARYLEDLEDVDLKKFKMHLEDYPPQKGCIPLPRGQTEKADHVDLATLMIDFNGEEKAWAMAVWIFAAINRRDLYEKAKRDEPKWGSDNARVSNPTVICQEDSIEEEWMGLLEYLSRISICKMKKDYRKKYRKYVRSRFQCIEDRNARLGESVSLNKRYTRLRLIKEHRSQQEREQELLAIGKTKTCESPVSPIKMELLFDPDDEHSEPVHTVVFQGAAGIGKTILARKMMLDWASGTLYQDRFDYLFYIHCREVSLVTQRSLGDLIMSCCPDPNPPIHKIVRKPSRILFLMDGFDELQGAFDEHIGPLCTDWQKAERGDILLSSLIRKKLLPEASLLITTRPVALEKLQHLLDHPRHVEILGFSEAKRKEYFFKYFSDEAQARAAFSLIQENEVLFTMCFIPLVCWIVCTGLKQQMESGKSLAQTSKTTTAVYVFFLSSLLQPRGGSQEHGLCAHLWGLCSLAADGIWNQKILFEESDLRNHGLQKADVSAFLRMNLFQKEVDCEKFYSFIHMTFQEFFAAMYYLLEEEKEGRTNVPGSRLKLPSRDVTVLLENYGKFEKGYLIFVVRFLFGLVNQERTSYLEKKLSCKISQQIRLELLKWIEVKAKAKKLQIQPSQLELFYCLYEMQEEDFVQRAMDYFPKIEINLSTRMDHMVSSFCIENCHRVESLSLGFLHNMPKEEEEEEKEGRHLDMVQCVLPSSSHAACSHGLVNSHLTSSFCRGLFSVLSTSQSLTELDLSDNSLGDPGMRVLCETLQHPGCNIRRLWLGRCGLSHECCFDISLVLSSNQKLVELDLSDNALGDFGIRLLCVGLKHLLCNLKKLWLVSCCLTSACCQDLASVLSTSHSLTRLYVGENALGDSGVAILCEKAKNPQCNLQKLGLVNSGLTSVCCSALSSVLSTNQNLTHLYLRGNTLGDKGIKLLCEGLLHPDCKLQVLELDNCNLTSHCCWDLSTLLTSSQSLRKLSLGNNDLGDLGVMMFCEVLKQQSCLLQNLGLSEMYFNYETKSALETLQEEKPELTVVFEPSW

[11] = biological target: G-protein coupled receptor 55 (Homo sapiens, UniProt Q9Y2T6); experiment: GPR55 antagonists blocking LPI-driven arrestin recruitment, primary screen, imaging, U2OS, beta-arrestin-GFP, LPI agonist (AID 2013); type: functional;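 further: antagonist potency measured as reduced agonist-driven arrestin aggregation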
Sequence of G-protein coupled receptor 55 (Q9Y2T6 whole entry): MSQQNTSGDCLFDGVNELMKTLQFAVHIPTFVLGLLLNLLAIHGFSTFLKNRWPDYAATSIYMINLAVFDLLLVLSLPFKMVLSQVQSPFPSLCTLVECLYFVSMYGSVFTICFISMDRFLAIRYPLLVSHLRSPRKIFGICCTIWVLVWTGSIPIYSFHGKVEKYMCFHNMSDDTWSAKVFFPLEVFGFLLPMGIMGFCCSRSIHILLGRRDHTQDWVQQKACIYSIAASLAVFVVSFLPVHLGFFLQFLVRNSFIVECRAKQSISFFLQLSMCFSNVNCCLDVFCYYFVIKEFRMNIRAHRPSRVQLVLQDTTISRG

[12] = Cytotoxicity screening for potential Inhibitors of Bacterial Capsule Biogenesis. [Related pubchem assays (depositor defined):AID488970]; type: functional
[13] = biological target: T1, Microphthalmia-associated transcription factor (Homo sapiens, UniProt O75030); experiment: TRPM1 promoter luciferase signal decrease, dose response, MITF inhibitor project, cell-based, SK-MEL-5, cherry-picked, set 3 (AID 493073); type: functional
T1 sequence (O75030 whole entry): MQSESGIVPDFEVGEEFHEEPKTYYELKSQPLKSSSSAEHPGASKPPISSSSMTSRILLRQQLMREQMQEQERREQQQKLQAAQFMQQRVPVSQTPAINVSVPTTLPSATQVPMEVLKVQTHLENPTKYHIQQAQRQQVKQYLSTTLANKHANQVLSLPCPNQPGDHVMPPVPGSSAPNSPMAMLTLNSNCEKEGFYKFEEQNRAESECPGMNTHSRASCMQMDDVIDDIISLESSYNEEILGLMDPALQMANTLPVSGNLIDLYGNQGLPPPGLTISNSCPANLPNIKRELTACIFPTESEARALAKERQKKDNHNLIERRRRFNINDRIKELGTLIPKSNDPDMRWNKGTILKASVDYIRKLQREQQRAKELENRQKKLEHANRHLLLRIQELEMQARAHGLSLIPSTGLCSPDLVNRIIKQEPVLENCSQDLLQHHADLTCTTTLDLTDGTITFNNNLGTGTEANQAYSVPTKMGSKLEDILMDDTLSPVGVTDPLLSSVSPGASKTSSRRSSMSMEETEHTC

[14] = biological target: T2, Coagulation factor XII (Homo sapiens, UniProt P00748); experiment: Factor XIIa Dose Response Confirmation from Single Well HTS. [Related pubchem assays (depositor defined):AID701]; type: functional
T2 sequence (P00748 whole entry): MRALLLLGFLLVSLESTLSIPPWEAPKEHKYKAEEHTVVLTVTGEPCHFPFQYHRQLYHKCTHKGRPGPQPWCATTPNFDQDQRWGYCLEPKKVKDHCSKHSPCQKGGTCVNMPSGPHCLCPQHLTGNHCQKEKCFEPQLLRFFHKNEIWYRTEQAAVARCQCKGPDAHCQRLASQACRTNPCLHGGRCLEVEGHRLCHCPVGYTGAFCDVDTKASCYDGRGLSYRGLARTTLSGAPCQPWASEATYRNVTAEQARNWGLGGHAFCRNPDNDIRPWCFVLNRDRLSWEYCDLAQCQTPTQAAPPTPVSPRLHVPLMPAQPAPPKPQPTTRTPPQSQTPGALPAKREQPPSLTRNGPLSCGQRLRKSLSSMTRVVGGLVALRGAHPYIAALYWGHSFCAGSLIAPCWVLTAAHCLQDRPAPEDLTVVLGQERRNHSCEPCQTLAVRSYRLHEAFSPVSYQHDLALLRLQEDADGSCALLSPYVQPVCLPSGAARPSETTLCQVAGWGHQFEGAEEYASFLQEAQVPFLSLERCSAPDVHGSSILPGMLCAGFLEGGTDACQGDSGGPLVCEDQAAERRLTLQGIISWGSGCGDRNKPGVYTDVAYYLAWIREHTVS

[15] = biological target: Luciferin 4-monooxygenase (Photinus pyralis, UniProt P08659); experiment: Counter Screen for Luciferase-based Assay Positives. [Related pubchem assays: 620, 618, 411 ]
Sequence of Luciferin 4-monooxygenase (P08659 whole entry): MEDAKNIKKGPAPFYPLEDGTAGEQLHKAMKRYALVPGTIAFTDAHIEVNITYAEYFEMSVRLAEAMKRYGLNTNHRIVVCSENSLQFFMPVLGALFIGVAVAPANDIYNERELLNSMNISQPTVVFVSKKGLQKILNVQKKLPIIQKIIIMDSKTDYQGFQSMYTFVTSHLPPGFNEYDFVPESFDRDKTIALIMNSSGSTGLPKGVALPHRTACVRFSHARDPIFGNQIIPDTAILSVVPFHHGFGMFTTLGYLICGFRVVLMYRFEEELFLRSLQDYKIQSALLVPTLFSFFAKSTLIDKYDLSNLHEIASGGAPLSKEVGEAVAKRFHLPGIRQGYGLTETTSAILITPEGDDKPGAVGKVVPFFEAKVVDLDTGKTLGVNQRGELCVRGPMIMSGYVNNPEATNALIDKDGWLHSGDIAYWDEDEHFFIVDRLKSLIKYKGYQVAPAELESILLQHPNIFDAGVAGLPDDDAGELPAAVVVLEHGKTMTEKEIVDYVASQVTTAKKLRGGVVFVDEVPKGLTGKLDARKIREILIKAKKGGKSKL

[16] = cells; type: functional, cell-based
[17] = cells; type: functional, cell-based; remark: listed apart in the source
[18] = test system: HT-1080; experiment: cytotoxicity in HT1080 fibrosarcoma cells, cell-based, fluorescence readout (AID 620); type: functional; settings: Homo sapiens
[19] = THP-1 cell cytotoxicity, dose response, cytotoxicity control for non-replicating M. tuberculosis project (AID 489025); type: functional
[20] = HepG2 cell cytotoxicity, dose response, cytotoxicity control for non-replicating M. tuberculosis project (AID 489018); type: functional; settings: Mycobacterium tuberculosis
[21] = Vero E6 cell cytotoxicity, dose response, cytotoxicity control for non-replicating M. tuberculosis project, secondary assay (AID 492998); type: functional, VeroE6; settings: Vero C1008
[22] = biological target: Nonstructural protein 1 (Influenza A virus, UniProt Q194T2); type: functional, Influenza A virus (A/California/07/2009(H1N1))
Sequence of Nonstructural protein 1 (Q194T2 whole entry): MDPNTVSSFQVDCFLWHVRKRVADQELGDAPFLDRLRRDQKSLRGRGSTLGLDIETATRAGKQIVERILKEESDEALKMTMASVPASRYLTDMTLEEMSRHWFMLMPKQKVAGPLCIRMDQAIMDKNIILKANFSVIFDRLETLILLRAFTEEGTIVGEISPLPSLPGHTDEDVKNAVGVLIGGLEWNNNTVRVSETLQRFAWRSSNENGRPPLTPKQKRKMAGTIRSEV

[23] = cells; type: functional
[24] = test system: BJ; experiment: cytotoxicity toward Ras-transformed BJeLR fibroblasts, dose response, cell-based, alamar blue fluorescence, cherrypicked samples (AID 2631); type: functional; settings: Homo sapiens;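 further: confirmatory dose-response assay in RAS-dependent BJ fibroblasts engineered with TERT, LT and ST, with cytotoxicity read by fluorescence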
[25] = test system: A-375; experiment: A375 melanoma cell viability reduction, dose response, counter-screen for MITF modulator project, cherry-pick samples, set 2 (AID 540335); type: functional, cell-based; settings: Homo sapiens
[26] = Shn3 3'UTR reporter inhibitors, dose response, cell-based, Clone20 osteoblasts, firefly luciferase, cherry-picked (AID 624132); type: functional;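 further: firefly luciferase luminescence from reporter carrying the Shn3 3'UTR in osteoblasts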
[27] = HepG2 cell cytotoxicity, dose response, cytotoxicity control for Shn3 inhibitor project, CellTiter-Glo, cherry-picked (AID 624134); type: functional, cell-based
[28] = control 3'UTR Renilla luciferase suppression, dose response, counter-screen for Shn3 inhibitor project, cell-based, Clone20-Shn3RL, cherry-picked (AID 624133); type: functional
[29] = biological target: Cyclin-dependent kinase 5/CDK5 activator 1 (Homo sapiens, UniProt Q00535); experiment: CDK5/p35 kinase inhibitors, dose response, biochemical, cherry-picked samples, set 2 (AID 504545)
Sequence of Cyclin-dependent kinase 5/CDK5 activator 1 (Q00535 whole entry): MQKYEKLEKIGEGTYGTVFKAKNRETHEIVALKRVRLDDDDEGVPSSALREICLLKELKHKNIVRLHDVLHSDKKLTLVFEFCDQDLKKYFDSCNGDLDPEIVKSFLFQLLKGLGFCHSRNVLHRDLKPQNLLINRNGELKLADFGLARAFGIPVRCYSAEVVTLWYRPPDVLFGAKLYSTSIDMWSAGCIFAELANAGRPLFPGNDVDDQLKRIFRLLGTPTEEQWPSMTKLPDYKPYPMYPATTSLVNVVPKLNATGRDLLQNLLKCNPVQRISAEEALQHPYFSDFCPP
Sequence of Cyclin-dependent kinase 5/CDK5 activator 1 (Q15078 whole entry, further chain): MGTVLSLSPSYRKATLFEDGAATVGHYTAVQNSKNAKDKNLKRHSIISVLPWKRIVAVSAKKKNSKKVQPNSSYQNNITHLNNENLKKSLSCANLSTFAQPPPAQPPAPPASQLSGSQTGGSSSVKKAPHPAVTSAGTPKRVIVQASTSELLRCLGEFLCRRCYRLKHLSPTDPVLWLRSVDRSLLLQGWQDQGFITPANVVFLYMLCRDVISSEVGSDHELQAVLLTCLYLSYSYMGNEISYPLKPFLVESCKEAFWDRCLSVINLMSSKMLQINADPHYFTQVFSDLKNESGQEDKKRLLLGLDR

[30] = HepG2 cell cytotoxicity, dose response, cytotoxicity control, ATP luminescence, cherry-pick, activator set 2 (AID 1053143); type: functional, cell-based
[31] = biological target: T3, Oxysterols receptor LXR-beta (Homo sapiens, UniProt P55055); type: functional, cell-based;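 further: agonist activity at LXR measured by a cell-based luminescence readout across a dose range, run as a counterscreen for daf-12 agonists; HEK293 cells with Gal4-LXR fusion and GAL4-driven luciferase reporter; potency for activation of Gal4-LXR reporter so compounds are agonists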
T3 sequence (P55055 whole entry): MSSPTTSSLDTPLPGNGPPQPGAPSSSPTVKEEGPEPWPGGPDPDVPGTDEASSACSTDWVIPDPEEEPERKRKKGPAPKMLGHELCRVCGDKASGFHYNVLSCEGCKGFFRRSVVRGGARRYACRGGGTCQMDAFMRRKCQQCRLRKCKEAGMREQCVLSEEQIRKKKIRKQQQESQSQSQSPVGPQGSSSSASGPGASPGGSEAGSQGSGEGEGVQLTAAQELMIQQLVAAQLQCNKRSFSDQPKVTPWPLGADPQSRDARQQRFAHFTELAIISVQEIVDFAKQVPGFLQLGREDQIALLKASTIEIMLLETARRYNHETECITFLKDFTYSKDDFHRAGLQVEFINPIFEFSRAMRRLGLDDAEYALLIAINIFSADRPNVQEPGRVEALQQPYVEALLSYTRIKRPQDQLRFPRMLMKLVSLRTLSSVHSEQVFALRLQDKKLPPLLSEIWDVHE

[32] = biological target: Voltage-dependent T-type calcium channel subunit alpha-1H (Homo sapiens, UniProt O95180); type: functional;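 further: channel activity triggered by adding a high calcium stimulation buffer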

Sequence of Glyceraldehyde-3-phosphate dehydrogenase (P04406 whole entry): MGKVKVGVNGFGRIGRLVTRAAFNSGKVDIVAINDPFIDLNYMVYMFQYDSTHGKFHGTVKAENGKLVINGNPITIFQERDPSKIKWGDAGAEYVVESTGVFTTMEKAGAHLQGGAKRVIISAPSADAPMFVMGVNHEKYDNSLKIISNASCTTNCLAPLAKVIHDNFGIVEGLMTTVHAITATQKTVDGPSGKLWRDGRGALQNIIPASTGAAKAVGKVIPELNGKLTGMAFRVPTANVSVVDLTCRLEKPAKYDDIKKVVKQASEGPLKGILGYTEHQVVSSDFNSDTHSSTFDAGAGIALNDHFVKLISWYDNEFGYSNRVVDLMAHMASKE
Sequence of Alkaline phosphatase, placental type (P05187 whole entry): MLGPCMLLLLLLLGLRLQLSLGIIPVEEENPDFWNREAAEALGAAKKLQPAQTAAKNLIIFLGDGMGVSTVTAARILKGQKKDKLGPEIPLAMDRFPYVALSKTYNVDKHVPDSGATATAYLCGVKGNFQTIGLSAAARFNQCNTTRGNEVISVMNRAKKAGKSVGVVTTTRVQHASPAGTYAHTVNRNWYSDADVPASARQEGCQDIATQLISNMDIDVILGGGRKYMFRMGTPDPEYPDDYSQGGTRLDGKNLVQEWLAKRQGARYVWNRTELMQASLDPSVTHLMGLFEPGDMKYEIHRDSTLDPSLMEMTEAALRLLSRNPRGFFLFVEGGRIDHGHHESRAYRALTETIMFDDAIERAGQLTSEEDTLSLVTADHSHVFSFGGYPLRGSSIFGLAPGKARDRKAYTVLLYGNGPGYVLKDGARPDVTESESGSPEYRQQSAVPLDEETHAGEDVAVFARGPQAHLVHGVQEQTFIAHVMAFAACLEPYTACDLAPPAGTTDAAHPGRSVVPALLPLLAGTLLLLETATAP

With `CC(C)NC(=O)c1cc(-c2ccc(Cl)cc2Cl)n[nH]1` the IC50 [1] was > 100 µM (not active) and the IC50 [2] was > 100 µM (inactive).

In the case of `COc1cc(C(=O)/C=C/c2cccnc2)c([N+](=O)[O-])cc1OC`, the EC50 [3] is reported as 13 µM (active), the EC50 [4] is reported as 18.6 µM (active) and the CC50 [5] is reported as 15.6 µM (active). For the same compound, the EC50 [6] was > 75 µM (not active), the EC50 [7] was 9.22 µM (active) and the EC50 [8] was 32.1 µM (inactive).

For `CCCNC(=O)C1(C)CCCN(Cc2cccc(Oc3ccccc3)c2)C1` (configuration not stated), the AC50 [9] was 9.13 µM (active).

In the case of `Cn1c(=O)c(C(=O)Nc2ncccn2)c(O)c2ccccc21`, the IC50 [10] is reported as 13.6 µM (active).

With `COC(=O)C1=C(C)N(Cc2ccccc2)C(NCc2cc(OC)c(OC)c(OC)c2)=N[C@H]1c1ccccc1` the IC50 [11] was 3.93 µM (active).

For `N=c1n(CCN2CCCC2)c2ccccc2n1CC(O)c1ccc(Cl)c(Cl)c1` (configuration not stated), the CC50 [12] was 7.43 µM (active) and the AC50 [13] was 11.8 µM (active).

With `N#CC1=C2SCC(O)(c3ccccc3)N2C(=O)CC1c1ccccc1F` (configuration not stated) the IC50 [14] was 2.02 µM (active).

With `CN(C)c1nc(-c2ccccn2)nnc1-c1ccccc1` the EC50 [3] was 16.5 µM (inconclusive), the EC50 [15] was 1.23 µM (active) and the EC50 [16] was 7.46 µM (active). For the same compound, the EC50 [4] was 13.3 µM (inconclusive), the EC50 [17] was > 350 µM (not active) and the EC50 [18] was > 50 µM (not active). For the same compound, the EC50 [6] was > 150 µM (inconclusive), the EC50 [7] was 17.5 µM (active) and the CC50 [19] was 8.1 µM (active). The CC50 [20] was 19.8 µM (active), the CC50 [21] was 5.38 µM (active) and the IC50 [22] was 1.09 µM (active). For the same compound, the AC50 [13] was 6.17 µM (active), the IC50 [23] was 6.05 µM (active) and the EC50 [24] was 121 µM (inconclusive). For the same compound, the AC50 [25] was 39.3 µM (active), the AC50 [26] was 3.3 µM (active) and the AC50 [27] was 57.6 µM (active). For the same compound, the AC50 [28] was 8.3 µM (active).

For `COc1ccc(Nc2nccc(-c3cccc(N)c3)n2)cc1`, the AC50 [29] was 80.7 µM (active), the AC50 [30] was 18.8 µM (active) and the EC50 [31] was > 67.5 µM (inactive).

For `COc1ccc(-c2noc(CCC(=O)N(C)c3cccc(C)c3)n2)cc1`, the EC50 [32] was 6.52 µM (active).
